Results taken from US7378440B2, “Substituted benzoylureido-o-benzoylamides, process for their preparation and their use” (Sanofi-Aventis Deutschland GmbH, priority 2003, dated 2008).

Experiments:
[1] = target: T1, human glycogen phosphorylase a (Homo sapiens, UniProt P06737); assay: Glycogen phosphorylase a activity assay; type: biochemical; conditions: inhibition of GPa measured in reverse direction (glycogen synthesis from glucose 1-phosphate, liberated phosphate, absorption 820 nm)
T1 sequence (P06737 1-847): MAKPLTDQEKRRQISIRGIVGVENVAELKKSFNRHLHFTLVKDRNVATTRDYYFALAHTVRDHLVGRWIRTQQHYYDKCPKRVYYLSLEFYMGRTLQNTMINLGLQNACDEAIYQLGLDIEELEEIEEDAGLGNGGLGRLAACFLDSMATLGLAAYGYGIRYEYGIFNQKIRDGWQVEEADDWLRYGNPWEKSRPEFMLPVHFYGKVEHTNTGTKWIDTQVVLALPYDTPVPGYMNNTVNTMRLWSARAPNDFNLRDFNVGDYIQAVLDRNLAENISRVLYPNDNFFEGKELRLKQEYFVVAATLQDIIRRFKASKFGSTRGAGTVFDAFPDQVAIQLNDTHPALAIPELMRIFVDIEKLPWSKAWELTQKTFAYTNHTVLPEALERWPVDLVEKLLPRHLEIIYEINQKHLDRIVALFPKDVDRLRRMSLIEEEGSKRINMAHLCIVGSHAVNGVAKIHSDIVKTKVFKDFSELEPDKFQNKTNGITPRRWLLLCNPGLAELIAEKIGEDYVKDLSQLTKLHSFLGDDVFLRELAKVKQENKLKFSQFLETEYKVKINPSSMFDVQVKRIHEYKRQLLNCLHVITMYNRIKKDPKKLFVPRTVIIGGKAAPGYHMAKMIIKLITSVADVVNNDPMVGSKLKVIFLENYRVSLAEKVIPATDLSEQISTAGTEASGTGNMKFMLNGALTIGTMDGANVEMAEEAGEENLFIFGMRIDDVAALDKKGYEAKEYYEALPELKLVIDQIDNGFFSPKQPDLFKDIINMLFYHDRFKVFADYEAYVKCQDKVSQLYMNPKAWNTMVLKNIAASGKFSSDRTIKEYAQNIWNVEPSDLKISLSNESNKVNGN
Method: Glycogen Phosphorylase a Activity Assay
The effect of compounds on the activity of the active form of glycogen phosphorylase (GPa) was measured in the reverse direction by following the synthesis of glycogen from glucose 1-phosphate by determining the liberation of inorganic phosphate. All the reactions were carried out as duplicate determinations in microtiter plates with 96 wells (Half Area Plates, Costar No 3696), measuring the change in absorption owing to the formation of the reaction product at the wavelength specified hereinafter in a Multiskan Ascent Elisa Reader (Lab Systems, Finland).
In order to measure the GPa enzymic activity in the reverse direction, the general method of Engers et al. (Engers H D, Shechosky S, Madsen N B, Can J Biochem 1970 July;48(7):746-754) was used to measure the conversion of glucose 1-phosphate into glycogen and inorganic phosphate, with the following modifications: human glycogen phosphorylase a (for example with 0.76 mg of protein/ml (Aventis Pharma Deutschland GmbH), dissolved in buffer solution E (25 mM β-glycerophosphate, pH 7.0, 1 mM EDTA and 1 mM dithiothreitol) was diluted with buffer T (50 mM Hepes, pH 7.0, 100 mM KCl, 2.5 mM EDTA, 2.5 mM MgCl2.6H2O) and addition of 5 mg/ml glycogen to a concentration of 10 μg of protein/ml. Test substances were prepared as 10 mM solution in DMSO and diluted to 50 μM with buffer solution T. To 10 μl of this solution were added 10 μl of 37.5 mM glucose, dissolved in buffer solution T, and 5 mg/ml glycogen, plus 10 μt of a solution of human glycogen phosphorylase a (10 μg of protein/ml) and 20 μl of glucose 1-phosphate, 2,5 mM. The baseline glycogen phosphorylase a activity in the absence of test substance was determined by adding 10 μl of buffer solution T (0.1% DMSO). The mixture was incubated at room temperature for 40 minutes, and the liberated […] was measured by the general method of Drueckes et al. (Drueckes P, Schinzel R, Palm D, Anal Biochem 1995 Sep. 1;230(1):173-177) with the following modifications: 50 μl of a stop solution of 7.3 mM ammonium molybdate, 10.9 mM zinc acetate, 3.6% ascorbic acid, 0.9% SDS are added to 50 μl of the enzyme mixture. After incubation at 45° C. for 60 minutes, the absorption at 820 nm was measured. To determine the background absorption, in a separate mixture the stop solution was added immediately after addition of the glucose 1-phosphate solution. […]

SMILES	IC50 [1] [nM]	melting point [°C]
O=C(NC(=O)c1cc(F)c(F)cc1Cl)Nc1ccccc1C(=O)N1CC(F)(F)CC1C(=O)O (stereo not shown) [Example 6]	1400	102
COC(=O)[C@H]1CCCN1C(=O)c1ccccc1NC(=O)NC(=O)c1cc(F)c(F)cc1Cl [Example 4]	570	–
O=C(NC(=O)c1cc(F)c(F)cc1Cl)Nc1ccccc1C(=O)N1C2CCCCC2C[C@H]1C(=O)O (stereo partly shown) [Example 7]	4000	125

Other lines, results leading:

IC50 [1] [nM]	melting point [°C]	SMILES
2100	128.4	O=C(NC(=O)c1cc(F)c(F)cc1Cl)Nc1ccccc1C(=O)N1CCC[C@H]1C(=O)O [Example 2]
30	99	O=C(NC(=O)c1cc(F)c(F)cc1Cl)Nc1ccccc1C(=O)N1CCC1C(=O)O (stereo not shown) [Example 5]
120	193.1	O=C(NC(=O)c1cc(F)c(F)cc1Cl)Nc1ccccc1C(=O)N1CCCC1C(=O)O (stereo not shown) [Example 3]
30	123.5	O=C(NC(=O)c1cc(F)c(F)cc1Cl)Nc1ccccc1C(=O)N1CCC[C@@H]1C(=O)O [Example 1, R-1-{2-[3-(2-Chloro-4,5-difluorobenzoyl)ureido]benzoyl}pyrrolidine-2-carboxylic acid]
